Legend:
[1] = target: T1, human B1R receptor (hB1R) (Homo sapiens, UniProt P46663); assay: FLIPR Ca2+ functional study on bradykinin receptor 1, hB1R cells (CHO K1); type: cell-based; details: CHO-K1, 10 μM test substance; CHO K1 cells with human B1R; agonist Lys-Des-Arg9-bradykinin at EC80; read-out: B1R antagonism, human [10 μM] % inhibition
T1 construct: expressed in transfected cells; host or cells: CHO K1 cells, stably transfected
T1 sequence (P46663 1-353): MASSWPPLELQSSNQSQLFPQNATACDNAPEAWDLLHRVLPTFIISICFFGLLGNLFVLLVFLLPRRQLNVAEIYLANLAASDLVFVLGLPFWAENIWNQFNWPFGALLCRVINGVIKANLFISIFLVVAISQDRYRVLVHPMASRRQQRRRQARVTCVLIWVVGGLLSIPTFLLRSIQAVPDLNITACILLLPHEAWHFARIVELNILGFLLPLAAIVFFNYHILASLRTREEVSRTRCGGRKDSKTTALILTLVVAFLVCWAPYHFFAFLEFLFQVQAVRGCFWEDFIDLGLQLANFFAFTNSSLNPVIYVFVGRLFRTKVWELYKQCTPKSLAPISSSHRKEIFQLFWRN
Method in brief: (§1)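 Stably transfected CHO K1 cells loaded with Fluo-4; FLIPR Ca2+ fluorescence (ex 488/em 540 nm, peak counts). Compounds (10 μM, or concentration series for IC50) preincubated 10–20 min, then EC80 agonist added (human: Lys-Des-Arg9-bradykinin; rat: Des-Arg9-bradykinin); % inhibition versus maximum achievable, n=2–3, N≥2.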

[2] = target: T2, B1R receptor of the rat (rB1R) (Rattus norvegicus, UniProt P97583); assay: FLIPR Ca2+ functional study on bradykinin receptor 1, rB1R cells (CHO K1); type: cell-based; details: 10 μM test substance; CHO K1 cells with rat B1R; agonist Des-Arg9-bradykinin at EC80; read-out: B1R antagonism, rat [10 μM] % inhibition
T2 construct: expressed in transfected cells; host or cells: CHO K1 cells, stably transfected
T2 sequence (P97583 1-337): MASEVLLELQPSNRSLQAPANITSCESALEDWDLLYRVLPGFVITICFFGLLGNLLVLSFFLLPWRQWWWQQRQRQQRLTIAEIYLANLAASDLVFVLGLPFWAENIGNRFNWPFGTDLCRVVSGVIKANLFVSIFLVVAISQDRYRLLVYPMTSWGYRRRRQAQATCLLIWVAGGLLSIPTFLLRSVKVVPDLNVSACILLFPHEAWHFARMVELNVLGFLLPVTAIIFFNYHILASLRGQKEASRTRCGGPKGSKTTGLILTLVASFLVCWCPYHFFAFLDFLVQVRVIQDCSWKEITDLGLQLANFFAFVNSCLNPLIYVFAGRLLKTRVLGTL
Method in brief: as §1

inhibition at 10 µM [1] [%]	inhibition at 10 µM [2] [%]	SMILES
100	101	COc1cc(C)c(S(=O)(=O)N2Cc3ccc(C(=O)N4CCC5(CC4)CCN(c4ccncc4)CC5)cc3C2)c(C)c1 [Compound G-67, [2-[(4-Methoxy-2,6-dimethyl-phenyl)sulfonyl]-2,3-dihydro-1H-isoindol-5-yl]-(9-pyridin-4-yl-3,9-diazaspiro[5.5]undecan-3-yl)-methanone]
87	90	O=C(c1ccc2c(c1)CN(S(=O)(=O)c1ccc(F)c3ccccc13)CC2)N1CCC2(CC1)CCN(c1ccncc1)CC2 [Compound G-56, (2-(4-Fluoronaphthalin-1-ylsulfonyl)-1,2,3,4-tetrahydroisoquinolin-7-yl)(9-(pyridin-4-yl)-3,9-diazaspiro[5.5]undecan-3-yl)methanone]
90	81	Cc1cccc(Cl)c1S(=O)(=O)N1Cc2ccc(C(=O)N3CCC4(CC3)CCN(c3ccncc3)CC4)cc2C1 [Compound G-68, [2-[(2-Chloro-6-methyl-phenyl)sulfonyl]-2,3-dihydro-1H-isoindol-5-yl]-(9-pyridin-4-yl-3,9-diazaspiro[5.5]undecan-3-yl)-methanone]
35	57	O=C(Nc1ccc(Cl)c(Cl)c1)N1CCc2onc(C(=O)N3CCC4(CC3)CCN(c3ccncc3)CC4)c2C1 [Compound G-46, N-(3,4-Dichlorophenyl)-3-(9-(pyridin-4-yl)-3,9-diazaspiro[5.5]undecane-3-carbonyl)-6,7-dihydroisoxazolo[4,5-c]pyridine-5(4H)-carboxamide]
88	101	COc1cc(C)c(S(=O)(=O)N2CCCc3ccc(CC(=O)N4CCC5(CC4)CCN(c4ccncc4)CC5)nc32)c(C)c1 [Compound G-70, 2-[8-[(4-Methoxy-2,6-dimethyl-phenyl)sulfonyl]-5,6,7,8-tetrahydro-[1,8]naphthyridin-2-yl]-1-(9-pyridin-4-yl-3,9-diazaspiro[5.5]undecan-3-yl)-ethanone]
91	80	O=C(c1cn2c(n1)CN(C(=O)c1ccc(Cl)s1)CC2)N1CCC2(CC1)CCN(c1ccncc1)CC2 [Compound G-71, [7-(5-Chloro-thiophene-2-carbonyl)-5,6,7,8-tetrahydro-imidazo[1,2-a]pyrazin-2-yl]-(9-pyridin-4-yl-3,9-diazaspiro[5.5]undecan-3-yl)-methanone]
83	80	CC(C)(C)c1ccc(C(=O)N2CCc3ccc(C(=O)N4CCC5(CC4)CCN(c4ccncc4)CC5)cc3C2)s1 [Compound G-63, (5-tert-Butylthiophen-2-yl)(7-(9-(pyridin-4-yl)-3,9-diazaspiro[5.5]undecane-3-carbonyl)-3,4-dihydroisoquinolin-2(1H)-yl)methanone]
99	90	Cc1cccc(Cl)c1S(=O)(=O)N1CCc2cccc(C(=O)N3CCC4(CC3)CCN(c3ccncc3)CC4)c2C1 [Compound G-37, (2-(2-Chloro-6-methylphenylsulfonyl)-1,2,3,4-tetrahydroisoquinolin-8-yl)(9-(pyridin-4-yl)-3,9-diazaspiro[5.5]undecan-3-yl)methanone]
97	89	O=C(Cc1ccc2c(c1)N(S(=O)(=O)c1cccc3ccccc13)CCC2)N1CCC2(CC1)CCN(c1ccncc1)CC2 [Compound G-17, 2-(1-(Naphthalin-1-ylsulfonyl)-1,2,3,4-tetrahydroquinolin-7-yl)-1-(9-(pyridin-4-yl)-3,9-diazaspiro[5.5]undecan-3-yl)ethanone]
97	99	COc1cc(C)c(S(=O)(=O)N2CCc3ccc(C(=O)N4CCC5(CC4)CCN(c4ccncc4)CC5)cc3C2)c(C)c1 [Compound G-04, (2-(4-Methoxy-2,6-dimethylphenylsulfonyl)-1,2,3,4-tetrahydroisoquinolin-7-yl)(9-(pyridin-4-yl)-3,9-diazaspiro[5.5]undecan-3-yl)methanone]
97	80	COc1cc(C)c(S(=O)(=O)N2CCCc3ccc(CC(=O)N4CCC5(CC4)CCN(C4CCC4)C5)cc32)c(C)c1 [Compound G-10, 1-(2-Cyclobutyl-2,8-diazaspiro[4.5]decan-8-yl)-2-(1-(4-methoxy-2,6-dimethylphenylsulfonyl)-1,2,3,4-tetrahydroquinolin-7-yl)ethanone]
18	86	COc1cc(C)c(S(=O)(=O)N2CCCc3ccc(CC(=O)N4CCC5(CCC(N6CC(F)(F)C6)CC5)CC4)cc32)c(C)c1 [Compound G-34, 1-(9-(3,3-Difluoroazetidin-1-yl)-3-azaspiro[5.5]undecan-3-yl)-2-(1-(4-methoxy-2,6-dimethylphenylsulfonyl)-1,2,3,4-tetrahydroquinolin-7-yl)ethanone]
99	95	COc1cc(C)c(S(=O)(=O)N2CCc3onc(C(=O)N4CCC5(CC4)CCN(c4ccncc4)CC5)c3C2)c(C)c1 [Compound G-26, (5-(4-Methoxy-2,6-dimethylphenylsulfonyl)-4,5,6,7-tetrahydroisoxazolo[4,5-c]pyridin-3-yl)(9-(pyridin-4-yl)-3,9-diazaspiro[5.5]undecan-3-yl)methanone]
99	89	COc1cc(C)c(S(=O)(=O)N2CCc3ccc(CC(=O)N4CCC5(CC4)CCN(c4ccncc4)CC5)cc3C2)c(C)c1 [Compound G-39, 2-(2-(4-Methoxy-2,6-dimethylphenylsulfonyl)-1,2,3,4-tetrahydroisoquinolin-7-yl)-1-(9-(pyridin-4-yl)-3,9-diazaspiro[5.5]undecan-3-yl)ethanone]
85	13	COc1cc(C)c(C(=O)N2Cc3ccc(C(=O)N4CCC5(CC4)CCN(c4ccncc4)CC5)cc3C2)c(C)c1 [Compound G-73, [2-(4-Methoxy-2,6-dimethyl-benzoyl)-2,3-dihydro-1H-isoindol-5-yl]-(9-pyridin-4-yl-3,9-diazaspiro[5.5]undecan-3-yl)-methanone]
99	106	O=C(c1ccc2c(c1)CN(C(=O)C(c1ccccc1)c1ccccc1)CC2)N1CCC2(CC1)CCN(c1ccncc1)CC2 [Compound G-49, 2,2-Diphenyl-1-(7-(9-(pyridin-4-yl)-3,9-diazaspiro[5.5]undecane-3-carbonyl)-3,4-dihydroisoquinolin-2(1H)-yl)ethanone]
46	98	COc1cc(C)c(S(=O)(=O)N2CCCc3ccc(CC(=O)N4CCC5(CCC(Oc6ccncc6)CC5)CC4)cc32)c(C)c1 [Compound G-30, 2-(1-(4-Methoxy-2,6-dimethylphenylsulfonyl)-1,2,3,4-tetrahydroquinolin-7-yl)-1-(9-(pyridin-4-yloxy)-3-azaspiro[5.5]undecan-3-yl)ethanone]
59	96	O=C(Cc1ccc2c(c1)N(C(=O)c1ccccc1Cl)CCC2)N1CCC2(CC1)CCN(c1ccncc1)CC2 [Compound G-64, 2-[1-(2-Chloro-benzoyl)-1,2,3,4-tetrahydro-quinolin-7-yl]-1-(9-pyridin-4-yl-3,9-diazaspiro[5.5]undecan-3-yl)-ethanone]
66	81	O=C(c1cc2c(s1)CCN(C(=O)c1ccccc1Cl)C2)N1CCC2(CC1)CCN(c1ccncc1)CC2 [Compound G-15, (5-(2-Chlorobenzoyl)-4,5,6,7-tetrahydrothieno[3,2-c]pyridin-2-yl)(9-(pyridin-4-yl)-3,9-diazaspiro[5.5]undecan-3-yl)methanone]
98	100	O=C(Cc1ccc2c(c1)N(S(=O)(=O)c1ccccc1C(F)(F)F)CCC2)N1CCC2(CC1)CCN(c1ccncc1)CC2 [Compound G-16, 1-(9-(Pyridin-4-yl)-3,9-diazaspiro[5.5]undecan-3-yl)-2-(1-(2-(trifluoromethyl)phenylsulfonyl)-1,2,3,4-tetrahydroquinolin-7-yl)ethanone]
96	96	COc1cc(C)c(S(=O)(=O)N2CCCc3ccc(CC(=O)N4CCC5(CC4)CCN(c4ccncc4)C5)cc32)c(C)c1 [Compound G-09, 2-(1-(4-Methoxy-2,6-dimethylphenylsulfonyl)-1,2,3,4-tetrahydroquinolin-7-yl)-1-(2-(pyridin-4-yl)-2,8-diazaspiro[4.5]decan-8-yl)ethanone]

From patent US8357717B2, “Spiro group-containing amide compounds having bradykinin 1 receptor (B1R) activity” (Gruenenthal GmbH, priority 2009, dated 2013)
